Laboratory results from PubChem BioAssay (NCI).
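Exposure lasted 48 hours, with cells grown in 96-well plates and compounds tested at five concentrations. GI50 = concentration required for 50% inhibition of growth. TGI denotes the concentration required for complete inhibition of growth.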

Tests used:
Experiment in all cases: NCI anticancer screen, dose series, 48 h
[1] = test system: LOX IMVI melanoma
[2] = test system: A498 renal
[3] = test system: IGROV1 ovarian
[4] = test system: OVCAR-4 ovarian
[5] = test system: A549 NSCLC
[6] = test system: M14 melanoma
[7] = test system: MDA-MB-231 breast
[8] = test system: HS 578T breast
[9] = test system: MCF7 breast
[10] = test system: K-562 leukemia
[11] = test system: NCI-H23 lung
[12] = test system: UO-31 renal
[13] = test system: HT29 colon
[14] = test system: SK-MEL-2 melanoma
[15] = test system: U251 CNS
[16] = test system: HCT-15 colon
[17] = test system: NCI-H522 lung
[18] = test system: HOP-62 NSCLC
[19] = test system: NCI-H226 lung
[20] = test system: DU-145 prostate
[21] = test system: MOLT-4 leukemia
[22] = test system: CCRF-CEM leukemia
[23] = test system: TK-10 renal
[24] = test system: SR leukemia
[25] = test system: SF-539 CNS
[26] = test system: ACHN renal
[27] = test system: RXF 393 renal
[28] = test system: SF-295 CNS
[29] = test system: 786-0 renal
[30] = test system: KM12 colon
[31] = test system: SF-268 CNS
[32] = test system: HCC-2998 colon
[33] = test system: HCT-116 colon
[34] = test system: SW-620 colon
[35] = test system: BT-549 breast
[36] = test system: PC-3 prostate
[37] = test system: NCI/ADR-RES ovarian
[38] = test system: MALME-3M melanoma
[39] = test system: T-47D breast
[40] = test system: OVCAR-8 ovarian
[41] = test system: SK-MEL-5 melanoma
[42] = test system: SNB-19 CNS
[43] = test system: OVCAR-3 ovarian
[44] = test system: EKVX NSCLC
[45] = test system: RPMI-8226 leukemia
[46] = test system: SN12C renal
[47] = test system: SNB-75 CNS
[48] = test system: NCI-H460 lung
[49] = test system: HL-60(TB) leukemia
[50] = test system: OVCAR-5 ovarian
[51] = test system: COLO 205 colon
[52] = test system: CAKI-1 renal
[53] = test system: MDA-MB-435
[54] = test system: SK-OV-3 ovarian
[55] = test system: HOP-92 NSCLC
[56] = test system: UACC-62 melanoma
[57] = test system: UACC-257 melanoma
[58] = test system: SK-MEL-28 melanoma

What does the source list for `C=C1C(=O)O[C@H]2[C@H]1CC/C(Cn1cc(CCC)nn1)=C\CC[C@@]1(C)O[C@@H]21`?
GI50 [1]: 3.9 µM; TGI [1]: 16.9 µM; GI50 [2]: 21.5 µM; TGI [2]: 36.6 µM; GI50 [3]: 4.63 µM; TGI [3]: 20.2 µM; GI50 [4]: 9.46 µM; TGI [4]: 22.7 µM; GI50 [5]: 22.3 µM; TGI [5]: 44.3 µM; GI50 [6]: 3.99 µM; TGI [6]: 17.9 µM; GI50 [7]: 4.22 µM; TGI [7]: 16.3 µM; GI50 [8]: 23.4 µM; TGI [8]: 69.6 µM; GI50 [9]: 3.35 µM; TGI [9]: 15.4 µM; GI50 [10]: 3.96 µM; TGI [10]: 29.8 µM; GI50 [11]: 13.6 µM; TGI [11]: 32 µM; GI50 [12]: 11.1 µM; TGI [12]: 24.6 µM; GI50 [13]: 5.5 µM; TGI [13]: 18.2 µM; GI50 [14]: 16.3 µM; TGI [14]: 34.5 µM; GI50 [15]: 14.1 µM; TGI [15]: 27.7 µM; GI50 [16]: 2.9 µM; TGI [16]: 12.3 µM; GI50 [17]: 3.06 µM; TGI [17]: 10.7 µM; GI50 [18]: 14.1 µM; TGI [18]: 27.8 µM; GI50 [19]: 12.6 µM; TGI [19]: 33.4 µM; GI50 [20]: 4.32 µM; TGI [20]: 16 µM; GI50 [21]: 5.54 µM; TGI [21]: 27.6 µM; GI50 [22]: 3 µM; TGI [22]: 9.71 µM; GI50 [23]: 3.86 µM; TGI [23]: 14.6 µM; GI50 [24]: 2.88 µM; TGI [24]: 26.1 µM; GI50 [25]: 8.87 µM; TGI [25]: 22.5 µM; GI50 [26]: 3.81 µM; TGI [26]: 15.6 µM; GI50 [27]: 4.8 µM; TGI [27]: 16.5 µM; GI50 [28]: 18.5 µM; TGI [28]: 39.2 µM; GI50 [29]: 11.3 µM; TGI [29]: 25.5 µM; GI50 [30]: 17.6 µM; TGI [30]: 34.1 µM; GI50 [31]: 13.7 µM; TGI [31]: 28.4 µM; GI50 [32]: 15.1 µM; TGI [32]: 32.9 µM; GI50 [33]: 3.98 µM; TGI [33]: 14.4 µM; GI50 [34]: 4.23 µM; TGI [34]: 14.4 µM; GI50 [35]: 14.2 µM; TGI [35]: 28.6 µM; GI50 [36]: 14.9 µM; TGI [36]: 29.4 µM; GI50 [37]: 15.2 µM; TGI [37]: 33.4 µM; GI50 [38]: 4.7 µM; TGI [38]: 18.4 µM; GI50 [39]: 4.11 µM; TGI [39]: 21.3 µM; GI50 [40]: 13.5 µM; TGI [40]: 29.8 µM; GI50 [41]: 15.3 µM; TGI [41]: 29.6 µM; GI50 [42]: 18.8 µM; TGI [42]: 38.1 µM; GI50 [43]: 3.96 µM; TGI [43]: 14 µM; GI50 [44]: 11.5 µM; TGI [44]: 23.6 µM; GI50 [45]: 5.52 µM; TGI [45]: 27.1 µM; GI50 [46]: 12.1 µM; TGI [46]: 29.4 µM; GI50 [47]: 18.5 µM; TGI [47]: 69.4 µM; GI50 [48]: 21.2 µM; TGI [48]: 41.5 µM; GI50 [49]: 3.53 µM; TGI [49]: 15.3 µM; GI50 [50]: 14.1 µM; TGI [50]: 29.5 µM; GI50 [51]: 5.22 µM; TGI [51]: 17.1 µM; GI50 [52]: 3.91 µM; TGI [52]: 16.2 µM; GI50 [53]: 10.4 µM; TGI [53]: 24.9 µM; GI50 [54]: 26 µM; TGI [54]: 68.5 µM; GI50 [55]: 2.95 µM; TGI [55]: 7.13 µM

`CC(C)(C)c1cc(C2COC(=O)COCCOCC(=O)OCCOCCO2)cc(C(C)(C)C)c1O` (stereo not drawn) was tested. Which TGI [1] did it give?
The TGI was over 31.6 µM.

What about the TGI [2] of the same molecule?
Its TGI is over 100 µM.

And the TGI [3]?
Its TGI is over 100 µM.

And the TGI [4]?
The TGI was over 100 µM.

And the TGI [5]?
The TGI was over 100 µM.

What about the TGI [6] of the same molecule?
The TGI was over 100 µM.

And the TGI [7]?
Its TGI is over 100 µM.

What about the TGI [8] of the same molecule?
Its TGI is 77.7 µM.

What about the TGI [9] of the same molecule?
The TGI was over 100 µM.

And the TGI [10]?
Its TGI is over 100 µM.

And the TGI [11]?
The TGI was 99.1 µM.

What about the TGI [12] of the same molecule?
The TGI was 30.5 µM.

And the TGI [13]?
Its TGI is over 100 µM.

And the TGI [14]?
The TGI was over 100 µM.

And the TGI [15]?
Its TGI is over 100 µM.

And the TGI [16]?
The TGI was over 100 µM.

What about the TGI [17] of the same molecule?
The TGI was over 94 µM.

What about the TGI [18] of the same molecule?
The TGI was over 92.9 µM.

And the TGI [19]?
The TGI was over 100 µM.

And the TGI [20]?
Its TGI is 37.1 µM.

And the TGI [21]?
Its TGI is over 100 µM.

What about the TGI [22] of the same molecule?
The TGI was over 100 µM.

What about the TGI [56] of the same molecule?
Its TGI is over 100 µM.

And the TGI [23]?
Its TGI is 32.4 µM.

And the TGI [57]?
Its TGI is over 100 µM.

What about the TGI [24] of the same molecule?
Its TGI is 64.2 µM.

What about the TGI [25] of the same molecule?
The TGI was over 100 µM.

What about the TGI [26] of the same molecule?
The TGI was 37.2 µM.

What about the TGI [27] of the same molecule?
The TGI was 47 µM.

And the TGI [28]?
The TGI was 53.7 µM.

And the TGI [29]?
The TGI was 32.5 µM.

What about the TGI [30] of the same molecule?
The TGI was over 100 µM.

And the TGI [31]?
The TGI was over 90.7 µM.

What about the TGI [32] of the same molecule?
Its TGI is 43 µM.

And the TGI [33]?
The TGI was over 100 µM.

What about the TGI [34] of the same molecule?
The TGI was over 100 µM.

And the TGI [35]?
The TGI was over 77.7 µM.

And the TGI [36]?
Its TGI is 63.3 µM.

What about the TGI [37] of the same molecule?
Its TGI is over 100 µM.

What about the TGI [38] of the same molecule?
Its TGI is over 100 µM.

What about the TGI [39] of the same molecule?
Its TGI is over 31.6 µM.

And the TGI [40]?
Its TGI is over 100 µM.

What about the TGI [41] of the same molecule?
The TGI was over 100 µM.

And the TGI [42]?
Its TGI is over 100 µM.

And the TGI [43]?
The TGI was over 100 µM.

What about the TGI [44] of the same molecule?
The TGI was over 100 µM.

What about the TGI [45] of the same molecule?
Its TGI is over 100 µM.

What about the TGI [46] of the same molecule?
The TGI was 44.6 µM.

And the TGI [47]?
Its TGI is 49.6 µM.

What about the TGI [48] of the same molecule?
The TGI was over 100 µM.

What about the TGI [49] of the same molecule?
Its TGI is over 100 µM.

And the TGI [50]?
Its TGI is 54.8 µM.

And the TGI [51]?
The TGI was over 100 µM.

What about the TGI [58] of the same molecule?
The TGI was over 100 µM.

What about the TGI [52] of the same molecule?
The TGI was 33.4 µM.

And the TGI [53]?
The TGI was over 100 µM.

And the TGI [54]?
The TGI was over 78.4 µM.

And the TGI [55]?
Its TGI is 59.4 µM.
